Data reported in patent publication US10800791B2, “Triazole ACC inhibitors and uses thereof” (Gilead Apollo, LLC, priority 2015, dated 2020).
≈ marks a conversion by molar mass, not a printed value. Read-outs that look alike come from different tables or passages of the source.

Experiments:
[1] = target: human (hACC2) (Homo sapiens, UniProt O00763); assay: In vitro ACC inhibition assay (ADP-Glo), hACC2; assay type: biochemical; details: 5 nM ACC2, 20 μM ATP, 20 μM acetyl-CoA
Protocol: The detailed procedure is as follows. […] 10 μL ADP glo reagent was added. […] 20 μL kinase detection reagent was added.

[2] = test system: C. albicans; assay: Antifungal Activity Assay (broth microtiter MIC), C. albicans; assay type: cell-based, Candida albicans; details: for MIC: Candida albicans, ATCC90028, 48 h
Protocol: (§1) Compounds of the present invention were evaluated in an Antifungal Activity Assay. An exemplary procedure for the assay, which measures the susceptibility of various Candida species to antifungal compounds, follows. Compounds to be tested (including fluconazole and amphotericin B) were dissolved in DMSO to obtain a solution having a concentration of 1 mg/mL. These stock solutions were sterile filtered using a 0.22 um nylon syringe filter, then diluted in sterile water to achieve a final concentration of 128 μg/mL.
(§2) All species were grown from frozen stock by directly plating on to freshly prepared Sabouraud Dextrose agar (BD, Difco) and incubated overnight in ambient air at 35° C. for 24 h. A direct suspension was prepared in RPMI 1640+MOPS (Lonza, Biowhittaker) by taking individual colonies from the overnight cultures using sterile swabs soaked in sterile saline. The concentration of the suspension was determined using pre-determined standard curves. These suspensions were then diluted down to 5×10^3 CFU/mL to achieve a final concentration of 2.5×10^3 CFU/mL once added to the microtiter plate as per CLSI guidelines (M27-A3, Vol. 28 No. 14).
(§3) Broth microtiter MIC challenge plates were prepared following CLSI guidelines (M27-A3, Vol. 28 No. 14). The original CLSI guidelines focused on reading Candida MICs after 48 h of incubation. As reading after only 24 h offers a clear advantage of patient care, QC limits are being established for all drugs at 24 h. That being said there are no known interpretive breakpoints for amphotericin B at 24 h and the current fluconazole interpretive breakpoints are based on a 48 h reading. The MICs for the test compounds were recorded at 48 h. All MIC determinations were achieved by visually comparing the growth found in the antibiotic challenged wells to that of the growth control.

[3] = test system: C. krusei; assay: Antifungal Activity Assay (broth microtiter MIC), C. krusei; assay type: cell-based, Candida krusei; details: for MIC: Pichia kudriavzevii, ATCC6258, 48 h
Protocol: as §1, §2, §3

[4] = test system: C. parapsilosis; assay: Antifungal Activity Assay (broth microtiter MIC), C. parapsilosis; assay type: cell-based, Candida parapsilosis; details: for MIC: Lodderomyces parapsilosis, ATCC22019, 48 h
Protocol: as §1, §2, §3

[5] = target: fungal (fACC2) (UniProt Q00955); details: read-out: fACC2 (in vitro ACC2 Inhibition Assay, IC50), ADP-Glo, 5 nM ACC2, 20 μM ATP, 20 μM acetyl-CoA
[6] = Table 3a, ATCC 90028, 3 replicates, MIC recorded at 48 h, read-out: MIC, C. albicans ATCC 90028
[7] = Table 3b (additional results), ATCC 90028, 3 replicates, MIC recorded at 48 h, read-out: MIC, C. albicans ATCC 90028
[8] = Table 3a, ATCC 6258, 3 replicates, MIC recorded at 48 h, read-out: MIC, C. krusei ATCC 6258
[9] = Table 3b (additional results), ATCC 6258, 3 replicates, MIC recorded at 48 h, read-out: MIC, C. krusei ATCC 6258
[10] = Table 3a, ATCC 22019, 3 replicates, MIC recorded at 48 h, read-out: MIC, C. parapsilosis ATCC 22019
[11] = Table 3b (additional results), ATCC 22019, 3 replicates, MIC recorded at 48 h, read-out: MIC, C. parapsilosis ATCC 22019
[12] = Table 3a, 3 replicates, MIC recorded at 48 h
[13] = Table 3b (additional results), 3 replicates, MIC recorded at 48 h

fungal (fACC2), sequence (Q00955 whole entry): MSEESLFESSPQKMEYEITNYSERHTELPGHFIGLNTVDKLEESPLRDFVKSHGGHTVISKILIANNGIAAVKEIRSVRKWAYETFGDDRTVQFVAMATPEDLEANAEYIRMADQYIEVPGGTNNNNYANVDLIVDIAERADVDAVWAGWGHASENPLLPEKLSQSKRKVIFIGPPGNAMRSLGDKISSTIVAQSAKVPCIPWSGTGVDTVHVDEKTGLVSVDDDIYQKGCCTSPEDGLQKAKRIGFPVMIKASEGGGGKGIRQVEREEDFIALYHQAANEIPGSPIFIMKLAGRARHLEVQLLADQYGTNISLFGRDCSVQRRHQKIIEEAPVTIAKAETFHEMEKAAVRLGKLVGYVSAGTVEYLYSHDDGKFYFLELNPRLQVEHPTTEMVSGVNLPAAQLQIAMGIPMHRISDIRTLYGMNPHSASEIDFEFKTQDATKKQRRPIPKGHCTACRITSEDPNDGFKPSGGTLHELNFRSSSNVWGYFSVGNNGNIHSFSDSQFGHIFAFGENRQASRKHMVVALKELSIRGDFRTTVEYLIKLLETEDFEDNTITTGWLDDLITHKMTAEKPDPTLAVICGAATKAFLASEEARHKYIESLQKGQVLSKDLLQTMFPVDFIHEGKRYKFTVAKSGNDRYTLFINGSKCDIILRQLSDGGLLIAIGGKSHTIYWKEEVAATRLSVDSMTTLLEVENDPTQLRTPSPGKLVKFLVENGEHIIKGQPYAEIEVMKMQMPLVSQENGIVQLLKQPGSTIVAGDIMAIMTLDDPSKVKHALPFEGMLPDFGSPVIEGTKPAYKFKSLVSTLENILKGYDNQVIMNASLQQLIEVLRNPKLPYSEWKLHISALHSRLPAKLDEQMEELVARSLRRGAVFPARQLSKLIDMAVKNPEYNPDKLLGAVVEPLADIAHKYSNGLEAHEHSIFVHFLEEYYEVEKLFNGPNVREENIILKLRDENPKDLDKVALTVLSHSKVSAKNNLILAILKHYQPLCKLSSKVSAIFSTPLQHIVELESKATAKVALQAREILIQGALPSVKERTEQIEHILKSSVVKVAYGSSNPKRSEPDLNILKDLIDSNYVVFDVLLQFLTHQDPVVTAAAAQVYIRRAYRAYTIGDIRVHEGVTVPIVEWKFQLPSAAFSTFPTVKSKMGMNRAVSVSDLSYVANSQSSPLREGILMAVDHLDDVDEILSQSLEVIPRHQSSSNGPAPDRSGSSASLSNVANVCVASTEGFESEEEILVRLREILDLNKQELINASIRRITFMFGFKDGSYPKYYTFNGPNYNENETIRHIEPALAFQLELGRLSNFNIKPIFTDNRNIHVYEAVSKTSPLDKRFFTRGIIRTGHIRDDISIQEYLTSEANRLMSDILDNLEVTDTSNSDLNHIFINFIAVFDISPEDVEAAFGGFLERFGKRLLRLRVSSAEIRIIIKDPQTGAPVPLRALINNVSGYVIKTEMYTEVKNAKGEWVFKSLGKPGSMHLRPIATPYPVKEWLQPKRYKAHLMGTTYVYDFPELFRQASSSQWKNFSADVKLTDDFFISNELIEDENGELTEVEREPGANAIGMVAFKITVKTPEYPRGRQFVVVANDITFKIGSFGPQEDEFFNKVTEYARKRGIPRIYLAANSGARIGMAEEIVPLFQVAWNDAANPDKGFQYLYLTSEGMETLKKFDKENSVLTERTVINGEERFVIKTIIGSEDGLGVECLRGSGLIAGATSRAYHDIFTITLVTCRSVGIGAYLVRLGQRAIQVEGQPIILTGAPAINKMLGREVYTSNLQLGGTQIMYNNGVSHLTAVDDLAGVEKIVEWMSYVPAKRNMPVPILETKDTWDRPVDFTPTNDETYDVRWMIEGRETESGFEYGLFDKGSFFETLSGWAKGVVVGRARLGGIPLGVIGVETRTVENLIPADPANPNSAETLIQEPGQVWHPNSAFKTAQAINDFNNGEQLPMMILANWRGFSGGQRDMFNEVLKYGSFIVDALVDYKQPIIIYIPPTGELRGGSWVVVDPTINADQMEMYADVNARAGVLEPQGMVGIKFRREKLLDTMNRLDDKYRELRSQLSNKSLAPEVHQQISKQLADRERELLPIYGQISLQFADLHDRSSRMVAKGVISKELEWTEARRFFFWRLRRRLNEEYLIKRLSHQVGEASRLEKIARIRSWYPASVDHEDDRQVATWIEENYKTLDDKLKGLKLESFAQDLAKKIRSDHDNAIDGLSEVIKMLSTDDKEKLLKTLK
human (hACC2), sequence (O00763 whole entry): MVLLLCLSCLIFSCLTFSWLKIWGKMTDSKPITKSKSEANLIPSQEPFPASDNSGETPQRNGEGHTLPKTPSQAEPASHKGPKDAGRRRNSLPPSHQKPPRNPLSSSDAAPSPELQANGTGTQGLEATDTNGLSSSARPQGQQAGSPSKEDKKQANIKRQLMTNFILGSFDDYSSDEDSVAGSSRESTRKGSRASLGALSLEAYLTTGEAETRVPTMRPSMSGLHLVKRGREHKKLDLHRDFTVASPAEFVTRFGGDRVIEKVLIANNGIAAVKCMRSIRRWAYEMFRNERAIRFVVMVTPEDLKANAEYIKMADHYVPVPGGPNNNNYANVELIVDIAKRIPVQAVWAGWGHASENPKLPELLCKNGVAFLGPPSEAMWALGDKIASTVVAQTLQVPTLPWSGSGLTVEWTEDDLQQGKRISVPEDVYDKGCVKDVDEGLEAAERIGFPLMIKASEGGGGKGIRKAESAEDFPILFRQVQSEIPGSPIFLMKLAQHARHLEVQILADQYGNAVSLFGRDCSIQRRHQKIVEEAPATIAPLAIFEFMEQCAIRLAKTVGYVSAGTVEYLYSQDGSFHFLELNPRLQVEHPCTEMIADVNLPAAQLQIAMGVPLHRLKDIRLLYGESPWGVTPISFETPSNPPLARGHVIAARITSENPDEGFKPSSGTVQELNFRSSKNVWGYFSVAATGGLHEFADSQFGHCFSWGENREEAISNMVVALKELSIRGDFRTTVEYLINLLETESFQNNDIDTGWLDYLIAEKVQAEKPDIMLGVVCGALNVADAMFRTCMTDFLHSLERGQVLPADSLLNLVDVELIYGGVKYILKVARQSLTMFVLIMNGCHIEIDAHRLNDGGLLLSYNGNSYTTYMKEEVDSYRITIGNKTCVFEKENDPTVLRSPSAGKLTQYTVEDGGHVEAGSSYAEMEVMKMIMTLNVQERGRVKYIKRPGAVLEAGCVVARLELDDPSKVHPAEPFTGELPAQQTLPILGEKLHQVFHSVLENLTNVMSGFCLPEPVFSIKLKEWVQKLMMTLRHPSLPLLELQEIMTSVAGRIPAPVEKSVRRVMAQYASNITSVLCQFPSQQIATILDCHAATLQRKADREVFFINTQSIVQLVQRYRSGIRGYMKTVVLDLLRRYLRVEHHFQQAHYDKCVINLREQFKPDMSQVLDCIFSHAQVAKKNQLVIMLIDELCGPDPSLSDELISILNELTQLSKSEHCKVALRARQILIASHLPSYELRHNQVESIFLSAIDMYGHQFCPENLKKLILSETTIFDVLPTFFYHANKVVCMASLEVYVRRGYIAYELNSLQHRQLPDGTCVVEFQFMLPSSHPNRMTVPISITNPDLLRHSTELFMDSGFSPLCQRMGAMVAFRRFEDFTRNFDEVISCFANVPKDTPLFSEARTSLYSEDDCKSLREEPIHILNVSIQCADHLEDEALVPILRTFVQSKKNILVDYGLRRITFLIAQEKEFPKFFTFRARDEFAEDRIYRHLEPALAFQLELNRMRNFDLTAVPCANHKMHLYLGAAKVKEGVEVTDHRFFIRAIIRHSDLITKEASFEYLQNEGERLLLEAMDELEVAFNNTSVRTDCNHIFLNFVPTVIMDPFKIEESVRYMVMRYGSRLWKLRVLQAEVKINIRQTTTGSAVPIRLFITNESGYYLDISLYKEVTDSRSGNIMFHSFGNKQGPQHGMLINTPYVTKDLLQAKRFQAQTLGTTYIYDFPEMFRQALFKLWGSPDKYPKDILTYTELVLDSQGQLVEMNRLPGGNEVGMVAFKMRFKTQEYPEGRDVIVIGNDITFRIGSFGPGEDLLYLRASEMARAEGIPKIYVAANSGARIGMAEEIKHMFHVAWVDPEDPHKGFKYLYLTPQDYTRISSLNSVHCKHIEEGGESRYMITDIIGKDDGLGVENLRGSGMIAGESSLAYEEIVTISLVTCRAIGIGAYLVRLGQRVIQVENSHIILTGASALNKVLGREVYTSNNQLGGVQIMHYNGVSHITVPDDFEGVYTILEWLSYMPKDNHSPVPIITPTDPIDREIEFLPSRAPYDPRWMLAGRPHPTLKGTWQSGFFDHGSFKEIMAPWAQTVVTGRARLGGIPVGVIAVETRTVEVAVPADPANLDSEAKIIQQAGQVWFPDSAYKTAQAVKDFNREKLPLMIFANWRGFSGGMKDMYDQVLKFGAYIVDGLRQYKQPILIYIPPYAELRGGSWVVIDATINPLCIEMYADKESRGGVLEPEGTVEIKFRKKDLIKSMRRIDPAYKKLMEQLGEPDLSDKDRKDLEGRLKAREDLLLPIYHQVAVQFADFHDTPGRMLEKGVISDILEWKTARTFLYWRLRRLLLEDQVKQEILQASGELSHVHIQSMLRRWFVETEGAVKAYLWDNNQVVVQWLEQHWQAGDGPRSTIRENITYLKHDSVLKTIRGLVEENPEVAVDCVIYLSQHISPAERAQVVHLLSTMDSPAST

Structure (SMILES) | IC50 ([1]; Table 2a) [nM] | IC50 ([1]; Table 2b, additional results) [nM] | MIC [2, 6] [µg/mL] | MIC [2, 7] [µg/mL] | MIC [3, 8] [µg/mL] | MIC [3, 9] [µg/mL] | MIC [4, 10] [µg/mL] | MIC [4, 11] [µg/mL] | IC50 ([5]; Table 2a) [nM] | IC50 ([5]; Table 2b, additional results) [nM] | further results
COCCCO[C@@H](Cn1c(=O)n(C(C)C(=O)NC(C)C)c(=O)c2c(C)c(-n3nccn3)sc21)c1cc(F)ccc1OC (stereo partly drawn) [Compound I-130] | 10 to 40 | 10 to 40 | 1.1 to 2 (≈ 1.83 to 3.32 µM) | 2.01 to 4 (≈ 3.34 to 6.64 µM) | 2.1 to 4 (≈ 3.48 to 6.64 µM) | 1.01 to 2 (≈ 1.68 to 3.32 µM) | 1.1 to 2 (≈ 1.83 to 3.32 µM) | 1.01 to 2 (≈ 1.68 to 3.32 µM) | 0.4 to 1 | 0.3 to 1 | –
COc1ccc(F)cc1[C@H](Cn1c(=O)n(C(C)C(=O)NC(C)C)c(=O)c2c(C)c(-n3nccn3)sc21)OCCO (stereo partly drawn) [Compound I-131] | 5 to 10 | 5 to 10 | 1.1 to 2 (≈ 1.91 to 3.48 µM) | 2.01 to 4 (≈ 3.5 to 6.96 µM) | 0.25 to 1 (≈ 0.435 to 1.74 µM) | 1.01 to 2 (≈ 1.76 to 3.48 µM) | 1.1 to 2 (≈ 1.91 to 3.48 µM) | 1.01 to 2 (≈ 1.76 to 3.48 µM) | 0.4 to 1 | 0.3 to 1 | –
COCCO[C@@H](Cn1c(=O)n(C(C)(C)C(=O)NC(C)C)c(=O)c2c(C)c(-n3nccn3)sc21)c1ccccc1OC [Compound I-133] | 5 to 10 | 5 to 10 | 1.1 to 2 (≈ 1.88 to 3.42 µM) | 1.01 to 2 (≈ 1.73 to 3.42 µM) | 1.1 to 2 (≈ 1.88 to 3.42 µM) | 0.25 to 1 (≈ 0.428 to 1.71 µM) | 2.1 to 4 (≈ 3.59 to 6.84 µM) | 0.25 to 1 (≈ 0.428 to 1.71 µM) | 1 to 5 | 1 to 5 | –
COCCO[C@@H](Cn1c(=O)n(C(C)(C)C(=O)NC2CCC2)c(=O)c2c(C)c(-n3nccn3)sc21)c1cc(F)ccc1OC [Compound I-134] | 5 to 10 | 5 to 10 | – | – | – | – | – | – | 1 to 5 | 1 to 5 | MIC, C. albicans ATCC 90028 [2, 12]: B (MIC of 1.1-2.0 μg/mL); MIC, C. albicans ATCC 90028 [2, 13]: D (MIC of >4.01 μg/mL); MIC, C. krusei ATCC 6258 [3, 12]: B (MIC of 1.1-2.0 μg/mL); MIC, C. krusei ATCC 6258 [3, 13]: B (MIC of 1.01-2.0 μg/mL); MIC, C. parapsilosis ATCC 22019 [4, 12]: B (MIC of 1.1-2.0 μg/mL); MIC, C. parapsilosis ATCC 22019 [4, 13]: A (MIC of 0.25-1.0 μg/mL)
COc1ccc(F)cc1[C@H](Cn1c(=O)n(C(C)(C)C(=O)NC(C)C)c(=O)c2c(C)c(-n3nccn3)sc21)OCCC(=O)O [Compound I-135, 3-[(1R)-1-(5-fluoro-2-methoxyphenyl)-2-(5-methyl-3-[1-methyl-1-[(propan-2-yl)carbamoyl]ethyl]-2,4-dioxo-6-(2H-1,2,3-triazol-2-yl)-1H,2H,3H,4H-thieno[2,3-d]pyrimidin-1-yl)ethoxy]propanoic acid] | 10 to 40 | 10 to 40 | 0.25 to 1 (≈ 0.405 to 1.62 µM) | 0.25 to 1 (≈ 0.405 to 1.62 µM) | 2.1 to 4 (≈ 3.41 to 6.49 µM) | 0.25 to 1 (≈ 0.405 to 1.62 µM) | 2.1 to 4 (≈ 3.41 to 6.49 µM) | 0.25 to 1 (≈ 0.405 to 1.62 µM) | 1 to 5 | 0.3 to 1 | –
COc1ccccc1[C@H](Cn1c(=O)n(C(C)(C)C(N)=O)c(=O)c2c(C)c(-n3nccn3)sc21)OCCC#N [Compound I-137, 2-[1-[(2R)-2-(2-cyanoethoxy)-2-(2-methoxyphenyl)ethyl]-5-methyl-2,4-dioxo-6-(2H-1,2,3-triazol-2-yl)-1H,2H,3H,4H-thieno[2,3-d]pyrimidin-3-yl]-2-methylpropanamide] | 1 to 5 | 1 to 5 | 2.1 to 4 (≈ 3.91 to 7.44 µM) | 2.01 to 4 (≈ 3.74 to 7.44 µM) | 2.1 to 4 (≈ 3.91 to 7.44 µM) | 2.01 to 4 (≈ 3.74 to 7.44 µM) | 2.1 to 4 (≈ 3.91 to 7.44 µM) | 2.01 to 4 (≈ 3.74 to 7.44 µM) | 1 to 5 | 1 to 5 | –
COc1ccc(F)cc1[C@H](Cn1c(=O)n(C(C)(C)C(=O)O)c(=O)c2c(C)c(-n3nccn3)sc21)OCCN1CC(C#N)C1 [Compound I-145] | – | 10 to 40 | 2.1 to 4 (≈ 3.43 to 6.54 µM) | > 4.01 | 2.1 to 4 (≈ 3.43 to 6.54 µM) | > 4.01 | 2.1 to 4 (≈ 3.43 to 6.54 µM) | > 4.01 | 1 to 5 | 1 to 5 | –
COc1ccc(F)cc1[C@H](Cn1c(=O)n(C(C)(C)C(=O)NC(C)C)c(=O)c2c(C)c(-n3nccn3)sc21)OCCN1CC(C#N)C1 [Compound I-146] | – | > 40 | – | – | – | – | – | – | 1 to 5 | 1 to 5 | MIC ([2]; read-out: MIC, C. albicans ATCC 90028, Table 3a, 3 replicates, MIC recorded at 48 h): 2.1 to 4 µg/mL (≈ 3.22 to 6.13 µM); MIC ([2]; read-out: MIC, C. albicans ATCC 90028, Table 3b (additional results), 3 replicates, MIC recorded at 48 h): 1.01 to 2 µg/mL (≈ 1.55 to 3.06 µM); MIC ([3]; read-out: MIC, C. krusei ATCC 6258, Table 3a, 3 replicates, MIC recorded at 48 h): 2.1 to 4 µg/mL (≈ 3.22 to 6.13 µM); MIC ([3]; read-out: MIC, C. krusei ATCC 6258, Table 3b (additional results), 3 replicates, MIC recorded at 48 h): 0.25 to 1 µg/mL (≈ 0.383 to 1.53 µM); MIC ([4]; read-out: MIC, C. parapsilosis ATCC 22019, Table 3a, 3 replicates, MIC recorded at 48 h): 2.1 to 4 µg/mL (≈ 3.22 to 6.13 µM); MIC ([4]; read-out: MIC, C. parapsilosis ATCC 22019, Table 3b (additional results), 3 replicates, MIC recorded at 48 h): 0.25 to 1 µg/mL (≈ 0.383 to 1.53 µM)
